In patent US6203824A (priority 1992, dated 2001):
Several values for one entry are separate records, joined by “and”; a condition that tells them apart may be missing. Equal values may be shown once. Read-outs that look alike come from different tables or passages of the source.

Assays:
[1] = test system: Sitophilus oryzae; details: in vivo; cited from earlier work
[2] = test system: Tribolium castaneum; details: in vivo; cited from earlier work
[3] = 25° C.; cited from earlier work
[4] = test system: Trogoderma granarium; details: in vivo; cited from earlier work
[5] = test system: Tribolium confusum; details: in vivo; cited from earlier work
[6] = test system: Tenebroides mauritanicus; details: in vivo; cited from earlier work
[7] = test system: Oryzsephilus surinamensis; details: in vivo; cited from earlier work
[8] = test system: Rhyzopertha dominica; details: in vivo; cited from earlier work
[9] = test system: Sitophilus granarius; details: in vivo; cited from earlier work
[10] = test system: Liposcelis bostrychophilus; details: in vivo
[11] = moist soil
[12] = test system: B. tyroni; details: queensland fruit fly, in vivo, inhaled
[13] = test system: grains of Australian standard white wheat and malting barley; details: in vivo
[14] = test system: R. dominica; details: in vivo
[15] = type: physicochemical; details: empty vial, 15 min
[16] = test system: B. tyroni; assay: whole plant or invertebrate; details: Bactrocera, inhaled or nasal, read-out: Corrected mortality
[17] = test system: L. destructor; details: in vivo
[18] = test system: Cold blooded animals; details: in vivo; cited from earlier work
[19] = test system: Rabbits; details: rabbit, in vivo; cited from earlier work
[20] = test system: mould; details: in vivo
[21] = test system: S. oryzae; set-up: species or system Sitophilus oryzae; details: in vivo
[22] = test system: S. oryzae; details: in vivo
[23] = test system: Mice; details: cited from earlier work
[24] = test system: Coptotermes acinaciformis; assay: whole plant or invertebrate; details: inhaled or nasal, 24 h, read-out: Corrected mortality

CBr [Methyl bromide, methyl bromide]
LD99 (concentration x time product) [1]: 30.0
LD95 (concentration x time product) [2]: 62.0
solubility in water [3]: 13.4 grams per litre
LC95 (concentration x time product) [4]: 136.0
LC99 (concentration x time product) [5]: 64.0
LC99 (concentration x time product) [6]: 115.0
LC95 (concentration x time product) [7]: 40.8
LC95 (concentration x time product) [8]: 33.0
LC99 (concentration x time product) [9]: 28.0

O=C=S [carbonyl sulphide]
Minimum effective tested dose [10]: 22.5
psocids dead after exposure [10]: all 200 of the psocids were dead
concentration as per cent of the calculated initial concentration ([11]; 2 min): 62 per cent
concentration as per cent of the calculated initial concentration ([11]; 5 h): 18 per cent
concentration as per cent of the calculated initial concentration ([11]; 20 h): 5.9 per cent
Corrected mortality ([12]; 6 h): 100%
Corrected mortality ([12]; 24 h): 100%
% Germination, final count (10 days) [13]: 96% and 93% and 92%
% Germination, first count (4 days) [13]: 93% and 91% and 89%
effect on seed germination or vigour [13]: no effect on seed germination or vigour was detected
No. emerging [14]: 2
control of all immature stages of R. dominica, on average ([14]; rhyzopertha dominica, 24 h): 93.4 per cent
solubility in water [3]: 1.4 grams per litre
recovery of the calculated applied dose [15]: 98.4 per cent
mortality at 120 mg h/L ([16]; 6 h): 12.6%
mortality at 150 mg h/L ([16]; 6 h): 13.5%
mortality at 210 mg h/L ([16]; 6 h): 100%
mortality at 300 mg h/L ([16]; 6 h): 91.7%
mortality at 360 mg h/L ([16]; 6 h): 100%
mortality at 480 mg h/L ([16]; 6 h): 99.2%
mortality at 600 mg h/L ([16]; 6 h): 100%
mortality at 720 mg h/L ([16]; 6 h): 99.7%
mortality at 870 mg h/L ([16]; 6 h): 93.3%
mortality at 120 mg h/L ([16]; 24 h): 37.1%
mortality at 180 mg h/L ([16]; 24 h): 4.9%
mortality at 240 mg h/L ([16]; 24 h): 19.5%
mortality at 366 mg h/L ([16]; 24 h): 53.3%
mortality at 420 mg h/L ([16]; 24 h): 88.8%
mortality at 480 mg h/L ([16]; 24 h): 98.3%
mortality at 540 mg h/L ([16]; 24 h): 98.3%
mortality at 600 mg h/L ([16]; 24 h): 100%
Minimum effective tested dose [17]: 120
Corrected mortality ([17]; mite, inhaled, 6 h): 100%
resistance compared with warm-blooded animals [18]: more resistance
concentration in air above which rabbits die quickly [19]: more than 0.3 per cent
effects after exposure [19]: some ill effects
discolouration of wheat by mould [20]: no discolouration occurred
Number of insects emerging from culture [21]: 2
No. emerged [22]: 2
time to death ([23]; 1200 ppm): 35 min
time to death ([23]; 2900 ppm): 11/2
time to death ([23]; 8900 ppm): 3/4
concentration in air above which mice die quickly ([23]; mouse, in vivo): more than 0.3 per cent
effects after exposure ([23]; mouse, in vivo): no perceptible effects
mortality at 192 mg h/L [24]: 0%
mortality at 600 mg h/L [24]: 100%

BrCCBr [Ethylene dibromide, ethylene dibromide]
LC95 (concentration x time product) [1]: 60.0
LD95 (concentration x time product) [2]: 22.0
LC95 (concentration x time product) [4]: 80.0
LC99 (concentration x time product) [5]: 31.0
LC99 (concentration x time product) [6]: 125.00
LC95 (concentration x time product) [7]: 19.2
LC95 (concentration x time product) [8]: 37.2
LC99 (concentration x time product) [9]: 34.5

S=C=S [Carbon disulphide, carbon disulphide]
LC95 (concentration x time product) [1]: 300.0
solubility in water [3]: 2.2 grams per litre
LC95 (concentration x time product) [4]: 696.0
LC99 (concentration x time product) [5]: 560.00
LC99 (concentration x time product) [6]: 828.00
LC95 (concentration x time product) [7]: 408.0
LC95 (concentration x time product) [8]: 294.0
LC99 (concentration x time product) [9]: 325.0

C1CO1 [Ethylene oxide, ethylene oxide]
LC95 (concentration x time product) [1]: 62.0
LD99 (concentration x time product) [2]: 135.0
LC95 (concentration x time product) [4]: 176.0
LC99 (concentration x time product) [5]: 127.5
LC99 (concentration x time product) [6]: 175.0
LC95 (concentration x time product) [7]: 60.0
LC95 (concentration x time product) [8]: 69.6
LC99 (concentration x time product) [9]: 36.0

ClCCCl [Ethylene dichloride, ethylene dichloride]
LC95 (concentration x time product) [1]: 738.0
LC90 (concentration x time product) [2]: 462.0
LC95 (concentration x time product) [4]: 2080.5
LC99 (concentration x time product) [5]: 365.0
LC99 (concentration x time product) [6]: 1728.0
LC95 (concentration x time product) [7]: 462.0
LC95 (concentration x time product) [8]: 636.0
LC99 (concentration x time product) [9]: 230.0

C=CC#N [Acrylonitrile, acrylonitrile]
LC95 (concentration x time product) [1]: 10.8
LC95 (concentration x time product) [4]: 48.0
LC99 (concentration x time product) [5]: 19.5
LC99 (concentration x time product) [6]: 40.0
LC95 (concentration x time product) [7]: 8.4
LC95 (concentration x time product) [8]: 8.4
LC99 (concentration x time product) [9]: 11.0

O=S(=O)(F)F [Sulphuryl fluoride, sulphuryl fluoride]
LC99 (concentration x time product) [5]: 55.0
LC99 (concentration x time product) [6]: 81.5
LC99 (concentration x time product) [9]: 17.5

ClC(Cl)(Cl)Cl [Carbon tetrachloride, carbon tetrachloride]
LC95 (concentration x time product) [1]: 220.0
LC90 (concentration x time product) [2]: 600.0
LC99 (concentration x time product) [5]: 025.0
LD50 (concentration x time product) [6]: 400.00
LC99 (concentration x time product) [9]: 495.0

P [Phosphine, phosphine]
LD99 (concentration x time product) [1]: 0.36
LC90 (concentration x time product) [2]: 11.5
100% mort. (concentration x time product) [4]: 331.0
LC99 (concentration x time product) [5]: 0.48
LC99 (concentration x time product) [6]: ~5.0
LD99 (concentration x time product) [7]: 0.96
LD99 (concentration x time product) [8]: 0.6
LC99 (concentration x time product) [9]: 1.01
